Consider eight compounds from patent US20260022142A1, “MACROCYCLIC IMMUNOMODULATORS” (Bristol-Myers Squibb Company, priority 2022, published 2026).

pIC50: −log10 of the molar value. Numbered stars: 1 amine (or outer) side, 2 acyl side, 3 side chain; on linkers, the order of the positions; unused ones are H or OH. Bridge positions count the residues as written; N and C are the ends. Square brackets hold non-standard residues; d marks the D form. Peptide text beside a SMILES is read from it. * marks the point of attachment. Phe(4-COOH) = N[C@@H](Cc1ccc(C(=O)O)cc1)C(=O)O; Bip = N[C@@H](Cc1ccc(-c2ccccc2)cc1)C(=O)O; NH(CH2)14COOH = O=C(O)CCCCCCCCCCCCCCN*; Phe(3-Me) = Cc1cccc(C[C@H](N)C(=O)O)c1; γGlu = O=C(O)[C@H](CCC(=O)[*:2])N[*:1]; NH(CH2)12COOH = O=C(O)CCCCCCCCCCCCN*; Val(3-OH) = CC(C)(O)[C@H](N)C(=O)O; 4Pal = N[C@@H](Cc1ccncc1)C(=O)O; Cha = N[C@@H](CC1CCCCC1)C(=O)O; Carboxymethyl = O=C(O)C*; Orn = NCCC[C@H](N)C(=O)O; Aun = NCCCCCCCCCCC(=O)O; Dab = NCC[C@H](N)C(=O)O; Dap = NC[C@H](N)C(=O)O; AEEA = NCCOCCOCC(=O)O; Propargyl = C#CC*

The target of this test is T1, PD-1/PD-L1 interaction (PE-labeled human PD-L1-Ig binding to Jurkat cell line over-expressing human PD-1) (Homo sapiens, UniProt Q15116).
T1 construct: expressed in transfected cells; host or cells: Jurkat
T1 sequence (Q15116 25-288): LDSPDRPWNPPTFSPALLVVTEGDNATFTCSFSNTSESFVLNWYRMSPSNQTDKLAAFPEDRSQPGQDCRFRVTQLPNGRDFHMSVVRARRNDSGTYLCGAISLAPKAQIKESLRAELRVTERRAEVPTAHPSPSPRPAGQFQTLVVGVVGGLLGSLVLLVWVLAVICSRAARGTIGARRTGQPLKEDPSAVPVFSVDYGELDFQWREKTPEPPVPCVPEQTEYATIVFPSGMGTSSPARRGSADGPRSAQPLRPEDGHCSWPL
Put plainly: Jurkat-PD-1 Cell Binding High-Content Screening Assay (CBA). It is filed as cell-based. The following applies: Jurkat cell line over-expressing human PD-1; PE-labeled PD-L1-Ig 20 nM final; read-out: Jurkat hPD1-PDL1 IC50. In a few lines: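 Jurkat cells stably over-expressing human PD-1 were seeded in DMEM with 10% fetal calf serum and pre-incubated with compound for 2 h at 37° C. PE-labeled human PD-L1-Ig was then added at 20 nM final for 1 hour, after which cells were fixed with paraformaldehyde, Hoechst-stained and imaged by high-content microscopy.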
Regarding `C#CCOc1ccc(C[C@@H]2NC(=O)[C@H](C(C)C)NC(=O)[C@H](CC3CCCCC3)NC(=O)[C@H](CCN)NC(=O)[C@@H](CC(C)C)NC(=O)[C@H](CCCN)NC(=O)[C@H](Cc3ccc(OCC(=O)O)cc3)NC(=O)[C@H](Cc3ccc(-c4ccccc4)cc3)NC(=O)[C@H](Cc3ccc(OCC(=O)O)cc3)NC(=O)[C@H](Cc3cccc(C)c3)NC(=O)[C@H](CC(=O)O)NC(=O)[C@H](Cc3ccncc3)NC(=O)[C@H](Cc3ccc(OCC(=O)O)cc3)NC(=O)CSC[C@@H](C(=O)N[C@@H](CCN)C(=O)NCCCCCCCCCCC(=O)O)NC2=O)cc1` [Compound 1249] ({CH2CO}-Y(Carboxymethyl)[4Pal]D[Phe(3-Me)]Y(Carboxymethyl)[Bip]Y(Carboxymethyl)[Orn][dL][Dab][Cha]VY(Propargyl)C[Dab][Aun]-OH; thioether N-14), the pIC50 is 7.09.
For `C#CCOC[C@@H]1NC(=O)[C@H](C(C)C)NC(=O)[C@H](CC2CCCCC2)NC(=O)[C@H](CCN)NC(=O)[C@@H](CC(C)C)NC(=O)[C@H](CCCN)NC(=O)[C@H](Cc2ccc(OCC(=O)O)cc2)NC(=O)[C@H](Cc2ccc(-c3ccccc3)cc2)NC(=O)[C@H](Cc2ccc(OCC(=O)O)cc2)NC(=O)[C@H](Cc2cccc(C)c2)NC(=O)[C@H](CC(=O)O)NC(=O)[C@H](Cc2ccncc2)NC(=O)[C@H](Cc2ccc(OCC(=O)O)cc2)NC(=O)CSC[C@@H](C(=O)N[C@@H](CCN)C(=O)NCCCCCCCCCCC(=O)O)NC1=O` [Compound 1250] ({CH2CO}-Y(Carboxymethyl)[4Pal]D[Phe(3-Me)]Y(Carboxymethyl)[Bip]Y(Carboxymethyl)[Orn][dL][Dab][Cha]VS(Propargyl)C[Dab][Aun]-OH; thioether N-14) the value was 7.39; for `C#CCOc1ccc(C[C@@H]2NC(=O)[C@H](C(C)C)NC(=O)[C@H](CC3CCCCC3)NC(=O)[C@H](CCN)NC(=O)[C@@H](CC(C)C)NC(=O)[C@H](CCCN)NC(=O)[C@H](Cc3ccc(OCC(=O)O)cc3)NC(=O)[C@H](Cc3ccc(-c4ccccc4)cc3)NC(=O)[C@H](Cc3ccc(OCC(=O)O)cc3)NC(=O)[C@H](Cc3cccc(C)c3)NC(=O)[C@H](CC(=O)O)NC(=O)[C@H](Cc3ccc(OCC(=O)O)cc3)NC(=O)[C@H](CN)NC(=O)CSC[C@@H](C(=O)N[C@@H](CCN)C(=O)NCCOCCOCC(=O)NCCCCCCCCCCC(=O)O)NC2=O)cc1` [Compound 1251] ({CH2CO}-[Dap]Y(Carboxymethyl)D[Phe(3-Me)]Y(Carboxymethyl)[Bip]Y(Carboxymethyl)[Orn][dL][Dab][Cha]VY(Propargyl)C[Dab][AEEA][Aun]-OH; thioether N-14), 7.42; for `Cc1cccc(C[C@@H]2NC(=O)[C@H](CC(=O)O)NC(=O)[C@H](Cc3ccc(OCC(=O)O)cc3)NC(=O)[C@H](CCN)NC(=O)CSC[C@@H](C(=O)N[C@@H](CCN)C(=O)NCCOCCOCC(=O)NCCOCCOCC(=O)N[C@@H](CC(=O)NCCCCCCCCCCCCCCC(=O)O)C(=O)O)NC(=O)[C@H](Cc3c[nH]cn3)NC(=O)[C@H](C(C)(C)O)NC(=O)[C@H](CC3CCCCC3)NC(=O)[C@H](CCN)NC(=O)[C@@H](CC(C)C)NC(=O)[C@H](CCCN)NC(=O)[C@H](Cc3ccc(C(=O)O)cc3)NC(=O)[C@H](Cc3ccc(-c4ccccc4)cc3)NC(=O)[C@H](Cc3ccc(C(=O)O)cc3)NC2=O)c1` [Compound 1252] ({CH2CO}-[Dab]Y(Carboxymethyl)D[Phe(3-Me)][Phe(4-COOH)][Bip][Phe(4-COOH)][Orn][dL][Dab][Cha][Val(3-OH)]HC[Dab][AEEA][AEEA]D(NH(CH2)14COOH)-OH; thioether N-14), 7.38.
For `Cc1cccc(C[C@@H]2NC(=O)[C@H](CC(=O)O)NC(=O)[C@H](Cc3ccc(OCC(=O)O)cc3)NC(=O)[C@H](CCN)NC(=O)CSC[C@@H](C(=O)N[C@@H](CCN)C(=O)NCCOCCOCC(=O)NCCOCCOCC(=O)N[C@@H](CCC(=O)NCCCCCCCCCCCCCCC(=O)O)C(=O)O)NC(=O)[C@H](Cc3cnc[nH]3)NC(=O)[C@H](C(C)(C)O)NC(=O)[C@H](CC3CCCCC3)NC(=O)[C@H](CCN)NC(=O)[C@@H](CC(C)C)NC(=O)[C@H](CCCN)NC(=O)[C@H](Cc3ccc(C(=O)O)cc3)NC(=O)[C@H](Cc3ccc(-c4ccccc4)cc3)NC(=O)[C@H](Cc3ccc(C(=O)O)cc3)NC2=O)c1` [Compound 1253] ({CH2CO}-[Dab]Y(Carboxymethyl)D[Phe(3-Me)][Phe(4-COOH)][Bip][Phe(4-COOH)][Orn][dL][Dab][Cha][Val(3-OH)]HC[Dab][AEEA][AEEA]E(NH(CH2)14COOH)-OH; thioether N-14) the value was 7.51; for `Cc1cccc(C[C@@H]2NC(=O)[C@H](CC(=O)O)NC(=O)[C@H](Cc3ccc(OCC(=O)O)cc3)NC(=O)[C@H](CCN)NC(=O)CSC[C@@H](C(=O)N[C@@H](CCN)C(=O)NCCOCCOCC(=O)NCCOCCOCC(=O)N[C@@H](CC(=O)NCCCCCCCCCCCCC(=O)O)C(=O)O)NC(=O)[C@H](Cc3cnc[nH]3)NC(=O)[C@H](C(C)(C)O)NC(=O)[C@H](CC3CCCCC3)NC(=O)[C@H](CCN)NC(=O)[C@@H](CC(C)C)NC(=O)[C@H](CCCN)NC(=O)[C@H](Cc3ccc(C(=O)O)cc3)NC(=O)[C@H](Cc3ccc(-c4ccccc4)cc3)NC(=O)[C@H](Cc3ccc(C(=O)O)cc3)NC2=O)c1` [Compound 1255] ({CH2CO}-[Dab]Y(Carboxymethyl)D[Phe(3-Me)][Phe(4-COOH)][Bip][Phe(4-COOH)][Orn][dL][Dab][Cha][Val(3-OH)]HC[Dab][AEEA][AEEA]D(NH(CH2)12COOH)-OH; thioether N-14), 7.99.
Turning to `Cc1cccc(C[C@@H]2NC(=O)[C@H](CC(=O)O)NC(=O)[C@H](Cc3ccc(OCC(=O)O)cc3)NC(=O)[C@H](CCN)NC(=O)CSC[C@@H](C(=O)N[C@@H](CCN)C(=O)NCCOCCOCC(=O)NCCOCCOCC(=O)N[C@@H](CCC(=O)NCC(=O)NCCCCCCCCCCCCC(=O)O)C(=O)O)NC(=O)[C@H](Cc3cnc[nH]3)NC(=O)[C@H](C(C)(C)O)NC(=O)[C@H](CC3CCCCC3)NC(=O)[C@H](CCN)NC(=O)[C@@H](CC(C)C)NC(=O)[C@H](CCCN)NC(=O)[C@H](Cc3ccc(C(=O)O)cc3)NC(=O)[C@H](Cc3ccc(-c4ccccc4)cc3)NC(=O)[C@H](Cc3ccc(C(=O)O)cc3)NC2=O)c1` [Compound 1256] ({CH2CO}-[Dab]Y(Carboxymethyl)D[Phe(3-Me)][Phe(4-COOH)][Bip][Phe(4-COOH)][Orn][dL][Dab][Cha][Val(3-OH)]HC[Dab][AEEA][AEEA][γGlu]G-{NH(CH2)12COOH}; thioether N-14), the pIC50 was 8.00.
With `Cc1cccc(C[C@@H]2NC(=O)[C@H](CC(=O)O)NC(=O)[C@H](Cc3ccc(OCC(=O)O)cc3)NC(=O)[C@H](CN)NC(=O)CSC[C@@H](C(=O)N[C@@H](CCN)C(=O)NCCOCCOCC(=O)NCCCCCCCCCCC(=O)O)NC(=O)[C@H](CCC(=O)O)NC(=O)[C@H](C(C)C)NC(=O)[C@H](CC(C)C)NC(=O)[C@H](CCN)NC(=O)[C@@H](CC(C)C)NC(=O)[C@H](CCCN)NC(=O)[C@H](Cc3ccc(OCC(=O)O)cc3)NC(=O)[C@H](Cc3ccc(-c4ccccc4)cc3)NC(=O)[C@H](Cc3ccc(OCC(=O)O)cc3)NC2=O)c1` [Compound 1257] ({CH2CO}-[Dap]Y(Carboxymethyl)D[Phe(3-Me)]Y(Carboxymethyl)[Bip]Y(Carboxymethyl)[Orn][dL][Dab]LVEC[Dab][AEEA][Aun]-OH; thioether N-14), the pIC50 is 7.70.

One may read the pIC50 as −log10 of the IC50, conventionally taken in molar units.
